ChEMBL document CHEMBL2429817, “Trisubstituted imidazoles as positive modulators of metabotropic glutamate receptor subtype 5” (ACS Med Chem Lett, 2013)
pEC50: −log10 of the molar value.

Biological target: Metabotropic glutamate receptor 5 (Homo sapiens, UniProt P41594)
Test: Positive modulation of human recombinant mGluR5 expressed in HEK293A cells by calcium based FLIPR assay
Type: functional, cell-based, HEK293-A

Chain of Metabotropic glutamate receptor 5 (P41594 whole entry): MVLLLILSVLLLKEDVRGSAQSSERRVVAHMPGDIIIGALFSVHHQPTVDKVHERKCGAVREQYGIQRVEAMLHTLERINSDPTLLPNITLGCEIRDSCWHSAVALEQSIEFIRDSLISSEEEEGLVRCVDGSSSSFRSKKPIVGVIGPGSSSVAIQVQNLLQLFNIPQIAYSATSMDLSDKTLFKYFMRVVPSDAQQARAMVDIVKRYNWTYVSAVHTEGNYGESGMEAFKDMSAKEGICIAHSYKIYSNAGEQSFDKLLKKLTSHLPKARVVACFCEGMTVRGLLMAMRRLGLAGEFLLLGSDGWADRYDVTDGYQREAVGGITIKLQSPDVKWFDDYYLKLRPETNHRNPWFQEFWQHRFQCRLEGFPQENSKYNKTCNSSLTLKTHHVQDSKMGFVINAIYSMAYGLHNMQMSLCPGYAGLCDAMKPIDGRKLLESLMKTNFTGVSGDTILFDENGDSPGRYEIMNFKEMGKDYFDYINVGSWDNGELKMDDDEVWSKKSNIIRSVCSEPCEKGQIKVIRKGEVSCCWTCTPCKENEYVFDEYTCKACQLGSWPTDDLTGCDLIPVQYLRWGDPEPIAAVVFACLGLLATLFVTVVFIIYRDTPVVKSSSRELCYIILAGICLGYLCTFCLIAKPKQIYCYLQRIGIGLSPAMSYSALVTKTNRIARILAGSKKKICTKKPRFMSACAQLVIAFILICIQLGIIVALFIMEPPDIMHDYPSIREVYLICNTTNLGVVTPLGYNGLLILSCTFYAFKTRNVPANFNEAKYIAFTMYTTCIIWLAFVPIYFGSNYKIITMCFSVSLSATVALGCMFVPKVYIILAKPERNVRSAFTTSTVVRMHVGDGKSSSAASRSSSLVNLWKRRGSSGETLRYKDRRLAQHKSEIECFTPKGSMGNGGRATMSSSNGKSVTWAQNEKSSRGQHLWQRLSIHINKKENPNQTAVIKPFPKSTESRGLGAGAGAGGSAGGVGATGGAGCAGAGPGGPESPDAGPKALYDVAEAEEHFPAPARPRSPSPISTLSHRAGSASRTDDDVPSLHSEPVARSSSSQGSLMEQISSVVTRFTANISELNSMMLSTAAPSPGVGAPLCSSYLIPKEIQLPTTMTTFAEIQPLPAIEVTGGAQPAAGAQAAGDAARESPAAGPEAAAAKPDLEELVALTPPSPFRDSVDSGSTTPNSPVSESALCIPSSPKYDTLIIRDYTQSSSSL

In order of falling pEC50:
1. CC1=NC2CCN(C(=O)Cn3cc(-c4ccc(F)c(C)c4)nc3-c3ccc(F)cc3)CC2O1 (centres undefined)  7.40
2. Cc1cc(-c2cn(CC(=O)N3CCN(c4ccccn4)CC3)c(-c3ccc(F)cc3)n2)ccc1F  7.28
3. CC1=NC2CCN(C(=O)Cn3cc(-c4ccc(F)c(C)c4)nc3-c3ccccc3)CC2O1 (centres undefined)  7.05
4. Cc1cc(-c2cn(CC(=O)N3CCN(c4cccnn4)CC3)c(-c3ccccc3)n2)ccc1F  6.07
